Results as given in US20220000964A1, “Compositions and Methods for Regulating Homeostasis of Chondrocytes, Extracellular Matrix, Articular Cartilage, and Phenotype of Arthritis” (Unigen, Inc., priority 2020, published 2022).
Several values for one entry are separate records, joined by “and”; a condition that tells them apart may be missing. Identical values can stand only once. Marks after values point to notes of the source that are not given here.

What was measured:
Format in all cases: in vivo, rat
CIA rats [1] = experiment: CIA rats, ankle joint histopathology (modified Mankin)
Procedure: For histopathological examination, the ankle joints were kept in 10% formalin for 72 h. The fixed specimens were then decalcified with Calci-Clear Rapid for one and a half days and embedded in paraffin. Standardized 5 μm serial sections were obtained at the medial and lateral section in the sagittal plane of the joint and were stained with hematoxylin and eosin (HE) and Safranin O-fast green to enable evaluation of proteoglycan content. A modified Mankin system (Mankin et al., 1971) was used to score structural and cellular alterations of joint tissues resulting from disease progression and/or treatment efficacy. The histological analysis was conducted at Nationwide Histology and slides were examined by a certified pathologist.
At necropsy, the ankle joint was carefully dissected out, fixed in 10% buffered formalin and sent to Nationwide Histology (Veradale, Wash., USA) for further histopathology analysis. The fixed specimens were then decalcified with Calci-Clear Rapid for one and a half days and embedded in paraffin. Standardized 5 m serial sections were obtained from each rat and stained with hematoxylin and eosin (HE) and Safranin O-fast green to enable evaluation of proteoglycan content. A modified Mankin system (Mankin et al., 1981) was used to score structural and cellular alterations of articular components as indications of disease progression and/or treatment efficacy. The histological analysis was conducted by a certified Pathologist at Nationwide Histology.

IL-6 = experiment: CIA rats, serum IL-6 ELISA; conditions: for IL-6: serum
Procedure: (§1) The presence of catabolic cytokines IL-6/TNF-α was measured using the Rat IL-6/TNF-α Quantikine ELISA kit from RandD Systems as follows: undiluted serum was added to a microplate coated with polyclonal IL-6/TNF-α antibody and allowed to bind for 2 hours at room temperature. The microplate was washed thoroughly to remove unbound serum, and then a polyclonal enzyme-conjugated IL-6/TNF-α antibody was added and allowed to bind for 2 hours at room temperature. Washing was repeated, enzyme substrate was added, and the plate was developed for 30 minutes at room temperature. After the addition of stop solution, the absorbance was read at 450 nm and the concentration of IL-6/TNF-α calculated based on the absorbance readings of an IL-6/TNF-α standard curve.

PIIANP = experiment: CIA rats, PIIANP ELISA (synovial fluid or serum)
Procedure: The presence of cartilage regeneration/rebuilding biomarker PIIANP was measured using the Rat Procollagen Type IIA N-Prop (PIIANP) ELISA kit from Mybiosource (product #: MBS9399069) as follows: synovial fluid was added to a microplate coated with PIIANP antibody as well as an HRP-conjugated PIIANP antibody and allowed to bind for one hour at 37° C. The microplate was thoroughly washed, and a Chromagen solution was added and allowed to bind for 15 minutes at 37° C. After the addition of stop solution, the absorbance was read at 450 nm and the concentration of PIIANP calculated based on the absorbance readings of a PIIANP standard curve.
The level of cartilage regeneration biomarker PIIANP was measured using the Rat Procollagen Type IIA N-Prop (PIIANP) ELISA kit from Mybiosource (product #: MBS9399069) as follows: undiluted serum was added to a microplate coated with PIIANP antibody as well as an HRP-conjugated PIIANP antibody and allowed to bind for one hour at 37° C. The microplate was thoroughly washed, and a Chromagen solution was added and allowed to bind for 15 minutes at 37° C. After the addition of stop solution, the absorbance was read at 450 nm and the concentration of PIIANP calculated based on the absorbance readings of a PIIANP standard curve.

uCTX-II = experiment: CIA rats, urinary CTX-II ELISA normalized to creatinine
Procedure: The presence of the cartilage degradation biomarker uCTX-II was measured using the Rat CTX-II ELISA kit from Mybiosource (product #: MBS2880519) as follows: diluted urine was added to a microplate coated with CTX-II antibody and allowed to bind for 2 h at 37° C. […] The microplate was washed thoroughly to remove unbound urine and antibody before an enzyme-conjugated avidin antibody was added to bind to the biotin-conjugated antibody for specific detection. The avidin antibody was allowed to bind for 1 h at 37° C. Washing was repeated, enzyme substrate was added, and the plate was developed for 30 min at 37° C. After the addition of stop solution, the absorbance was read at 450 nm, multiplied by dilution factor, and the concentration of CTX-II calculated based on the absorbance readings of a CTX-II standard curve. CTX-II amount was normalized to the amount of Creatinine in the urine using the Creatinine Parameter Assay Kit from R and D Systems (product #: […] Absorbance was read at 492 nm and Creatinine amount in urine was calculated based on the absorbance readings of a Creatinine standard curve.

[2] = tested on: type II collagen synthesis and degradation; experiment: CIA rats, Z score of type II collagen synthesis and degradation (PIIANP, uCTX-II)
Source text: Previously, Garnero et al measured these markers [Type II collagen synthesis and degradation: N-propeptide of type IIA procollagen (PIIANP) and urine CTX-II, respectively] and correlated them to findings on radiographs and arthroscopy of OA patients. […] They explained their observation that these patients have an uncoupling effect between collagen synthesis and degradation, which is leaning more towards the progression of OA.
Adapting their method, we calculated the Z-factor for cartilage synthesis and degradation using data from PIIANP and uCTX-II, respectively. For an intervention to drive the OA catabolic progression towards anabolic or regenerative activities, the Z-score values have to come close to zero.

CIA rats [3] = experiment: CIA rats, ankle diameter; design: Ankle diameter (Mean): unit not given here; conditions: for % Inhibition Ankle diameter (AUC): vs CIA + vehicle
TNF-α = experiment: CIA rats, serum TNF-α ELISA; conditions: for TNF-α: serum
Procedure: as §1

CIA rats [4] = experiment: CIA rats, paw thickness; design: Paw thickness (Mean): unit not given beside the values; conditions: for % Inhibition Paw thickness (AUC): vs CIA + vehicle
IL-1β = experiment: CIA rats, serum IL-1β ELISA; conditions: AMK CIA study; MTX 75 μg/kg, AMK 200 mg/kg oral
Procedure: The presence of catabolic cytokines IL-1β, TNF-α, or IL-6 was measured using Rat IL-1, TNF-α, and IL-6 Quantikine ELISA kit from R and D Systems (product #: RLB00 for IL-1β, RTA00 for TNF-α, and R6000B for IL-6) as follows: diluted serum was added to a microplate coated with polyclonal IL-1, TNF-α, or IL-6 antibody and allowed to bind for 2 h at room temperature. The microplate was washed thoroughly to remove unbound serum and then a polyclonal enzyme-conjugated IL-1β, TNF-α, or IL-6 antibody was added and allowed to bind for 2 h at room temperature. Washing was repeated, enzyme substrate was added, and the plate was developed for 30 min at room temperature. After the addition of stop solution, the absorbance was read at 450 nm, multiplied by dilution factor, and the concentration of IL-1β/TNF-α/IL-6 calculated based on the absorbance readings of an IL-1β/TNF-α/TL-6 standard curve.

MMP-13 = experiment: CIA rats, serum MMP-13 ELISA; conditions: for MMP-13: serum
Procedure: The presence of cartilage degradative enzyme MMP-13 was measured using the Rat Matrix Metallo-Proteinase 13 (MMP-13) ELISA kit from Mybiosource (product #: MBS702112 for MMP-13) as follows: serum was added to a microplate coated with MMP-13 antibody and allowed to bind for 2 h at 37° C. The samples were removed and then a biotin-conjugated MMP-13 antibody was added and allowed to bind for 1 h at 37° C. The microplate was thoroughly washed, and an avidin-conjugated Horse Radish Peroxidase was added and allowed to bind for 1 h at 37° C. Enzyme substrate was then added, and the plate was developed for 30 min at 37° C. After the addition of stop solution, the absorbance was read at 450 nm, multiplied by dilution factor, and the concentration of MMP-13 calculated based on the absorbance readings of an MMP-13 standard curve
The presence of cartilage degradative enzyme MMP-13 was measured using the Rat Matrix Metalloproteinase 13 (MMP-13) ELISA kit from Mybiosource (product #: MBS702112) as follows: undiluted serum was added to a microplate coated with MMP-13 antibody and allowed to bind for 2 hours at 37° C. The samples were removed, and then a biotin-conjugated MMP-13 antibody was added and allowed to bind for 1 hour at 37° C. The microplate was thoroughly washed, and an avidin-conjugated Horse Radish Peroxidase was added and allowed to bind for 1 hour at 37° C. Enzyme substrate was then added, and the plate was developed for 30 minutes at 37° C. After the addition of stop solution, the absorbance was read at 450 nm and the concentration of MMP-13 calculated based on the absorbance readings of an MMP-13 standard curve.

[5] = AMK study, MTX (75 μg/mL), AMK (200 mg/kg)
[6] = AP study, MTX (0.5 mg/mL), AP (200 mg/kg)
[7] = score 0-6, AMK study, MTX (75 μg/mL), AMK (200 mg/kg)
[8] = score, AP study, MTX (0.5 mg/mL), AP (200 mg/kg)
[9] = AMK CIA study, MTX 75 μg/kg, AMK 200 mg/kg oral
[10] = AP study, MTX (0.5 mg/mL), AP (200 mg/kg) oral 3 weeks
[11] = AP CIA study, Methotrexate 0.5 mg/kg, AP 200 mg/kg oral
[12] = AMK study, MTX 75 μg/kg, AMK 200 mg/kg
[13] = AP study, MTX 0.5 mg/kg, AP 200 mg/kg
[14] = Boost, MTX 75 μg/kg, AMK 200 mg/kg
[15] = Day 9, MTX 75 μg/kg, AMK 200 mg/kg
[16] = Day 10, MTX 75 μg/kg, AMK 200 mg/kg
[17] = Day 11, MTX 75 μg/kg, AMK 200 mg/kg
[18] = Day 12, MTX 75 μg/kg, AMK 200 mg/kg
[19] = Day 13, MTX 75 μg/kg, AMK 200 mg/kg
[20] = Day 14, MTX 75 μg/kg, AMK 200 mg/kg
[21] = Day 15, MTX 75 μg/kg, AMK 200 mg/kg
[22] = Day 16, MTX 75 μg/kg, AMK 200 mg/kg
[23] = Priming, AP study, MTX 0.5 mg/kg, AP 200 mg/kg
[24] = Priming, MTX 75 μg/kg, AMK 200 mg/kg

SMILES: CN(Cc1cnc2nc(N)nc(N)c2n1)c1ccc(C(=O)N[C@@H](CCC(=O)O)C(=O)O)cc1 [Methotrexate]
- Bone Erosion, percent inhibition against vehicle treated disease model (CIA rats [1]; [5]): (66.3%)
- Cartilage destruction, percent inhibition against vehicle treated disease model (CIA rats [1]; [5]): (32.6%)
- GAG Loss, percent inhibition against vehicle treated disease model (CIA rats [1]; [5]): (50.8%)
- Inflammation, percent inhibition against vehicle treated disease model (CIA rats [1]; [5]): (36.0%)
- Bone Erosion, percent inhibition against vehicle treated disease model (CIA rats [1]; [6]): (100%)
- Cartilage destruction, percent inhibition against vehicle treated disease model (CIA rats [1]; [6]): (98.3%)
- GAG Loss, percent inhibition against vehicle treated disease model (CIA rats [1]; [6]): (94.5%)
- Inflammation, percent inhibition against vehicle treated disease model (CIA rats [1]; [6]): (100%)
- Bone Erosion (Mean ± SE) (CIA rats [1]; [7]): 1.13 ± 0.46
- Cartilage destruction (Mean ± SE) (CIA rats [1]; [7]): 2.90 ± 0.63
- GAG Loss (Mean ± SE) (CIA rats [1]; [7]): 2.04 ± 0.62
- Inflammation (Mean ± SE) (CIA rats [1]; [7]): 3.25 ± 1.02
- Bone Erosion (Mean ± SE) (CIA rats [1]; [8]): 0.00 ± 0.00
- Cartilage destruction (Mean ± SE) (CIA rats [1]; [8]): 0.13 ± 0.05
- GAG Loss (Mean ± SD) (CIA rats [1]; [8]): 0.21 ± 0.17
- Inflammation (Mean ± SE) (CIA rats [1]; [8]): 0.00 ± 0.00
- serum IL-6 inhibition compared to diseased control (IL-6; [9]): 78.6%
- IL-6 (IL-6; [5]): 10.23 ± 7.37 pg/mL
- IL-6 (IL-6; [10]): 3.33 ± 6.44 pg/mL
- increase in synovial PIIANP vs vehicle-treated CIA (PIIANP; [9]): 69.8%
- increase in serum PIIANP vs CIA + vehicle (PIIANP; [11]): 47%
- PIIANP (PIIANP; serum, AP study, MTX (0.5 mg/mL), AP (200 mg/kg) oral 3 weeks): 6.53 ± 1.4 ng/mL
- PIIANP (PIIANP; synovial fluid, CIA rats, MTX 75 μg/mL (printed), AMK 200 mg/kg): 0.43 ± 0.16 ng/mg
- inhibition of urine CTX-II (cartilage degradation) vs vehicle-treated CIA (uCTX-II; [9]): 26.4%
- CTX-II (uCTX-II; urine, CIA rats, MTX 75 μg/mL (printed), AMK 200 mg/kg): 2500.8 ± 355.9 ng/g creatinine
- Z score, Imbalance (catabolic − anabolic), Mean ± SE ([2]; (CTX-II)-(PIIANP), Methotrexate 0.5 mg/kg (printed), AMK 200 mg/kg): 1.30 ± 0.33
- Z score, Regeneration, Mean ± SE ([2]; from PIIANP, SDs from mean of normal control rats, Methotrexate 0.5 mg/kg (printed), AMK 200 mg/kg): −0.90 ± 0.16
- improvement in driving OA progression to normalcy relative to vehicle treated CIA rats ([2]; from imbalance Z score): 56.4%
- Z score, Degradation, Mean ± SE ([2]; from uCTX-II, SDs from mean of normal control rats, Methotrexate 0.5 mg/kg (printed), AMK 200 mg/kg): 0.39 ± 0.34
- percent reduction in ankle diameter (AUC) vs vehicle-treated CIA (CIA rats [3]; AMK CIA study, MTX 75 μg/kg, AMK 200 mg/kg oral, AUC days 9-21): 65.94% and 65.9%
- AUC(d9-d21) (Mean ± SD) Ankle diameter (CIA rats [3]; [12]): 39.11 ± 0.21
- percent reduction in ankle diameter (AUC) vs vehicle-treated CIA (CIA rats [3]; [11]): 93.6%
- AUC(d9-d21) (Mean ± SD) Ankle diameter (CIA rats [3]; [13]): 30.94 ± 0.11
- Ankle diameter (Mean) (CIA rats [3]; [14]): 6.08
- Ankle diameter (Mean) (CIA rats [3]; [15]): 6.12
- Ankle diameter (Mean) (CIA rats [3]; [16]): 6.17
- Ankle diameter (Mean) (CIA rats [3]; [17]): 6.33
- Ankle diameter (Mean) (CIA rats [3]; [18]): 6.50*
- Ankle diameter (Mean) (CIA rats [3]; [19]): 6.67*
- Ankle diameter (Mean) (CIA rats [3]; [20]): 6.85*
- Ankle diameter (Mean) (CIA rats [3]; [21]): 7.06*
- Ankle diameter (Mean) (CIA rats [3]; [22]): 7.28*
- Ankle diameter (Mean) (CIA rats [3]; [23]): 0.10
- Ankle diameter (Mean) (CIA rats [3]; [24]): 6.03
- Ankle diameter (Mean) (CIA rats [3]; day 17, MTX 75 μg/kg, AMK 200 mg/kg): 7.32*
- Ankle diameter (Mean) (CIA rats [3]; day 19, MTX 75 μg/kg, AMK 200 mg/kg): 6.03†
- Ankle diameter (Mean) (CIA rats [3]; day 21, MTX 75 μg/kg, AMK 200 mg/kg): 6.08†
- % Inhibition Ankle diameter (AUC) (CIA rats [3]; MTX 75 μg/kg, AMK 200 mg/kg): 65.94%
- % Inhibition Ankle diameter (AUC) (CIA rats [3]; MTX 0.5 mg/kg, AP 200 mg/kg): 93.59%
- serum TNF-α inhibition compared to diseased control (TNF-α; [9]): 86.2%
- serum TNF-α level vs vehicle-treated CIA (TNF-α; [11]): significantly reduced
- TNF-α (TNF-α; AMK study, AMK (200 mg/kg)): 0.37 ± 1.12 pg/mL
- TNF-α (TNF-α; [10]): 10.2 ± 0.37 pg/mL
- percent reduction in paw thickness / paw edema (AUC) vs vehicle-treated CIA (CIA rats [4]; AMK CIA study, MTX 75 μg/kg, AMK 200 mg/kg oral, area under the swelling curve): 71.7%
- AUC(d9-d21) (Mean ± SD) Paw thickness (CIA rats [4]; [12]): 20.64 ± 0.21
- percent reduction in paw thickness / paw edema (AUC) vs vehicle-treated CIA (CIA rats [4]; [11]): 93.8%
- AUC(d9-d21) (Mean ± SD) Paw thickness (CIA rats [4]; [13]): 15.55 ± 0.21
- Paw thickness (CIA rats [4]; Boost, AP study, MTX 0.5 mg/kg, AP 200 mg/kg): 2.95 ± 0.06
- Paw thickness (Mean) (CIA rats [4]; [14]): 3.07
- Paw thickness (Mean) (CIA rats [4]; [15]): 3.12
- Paw thickness (Mean) (CIA rats [4]; [16]): 3.17
- Paw thickness (Mean) (CIA rats [4]; [17]): 3.32
- Paw thickness (CIA rats [4]; Day 12, AP study, MTX 0.5 mg/kg, AP 200 mg/kg): 2.99 ± 0.06
- Paw thickness (Mean) (CIA rats [4]; [18]): 3.47*
- Paw thickness (Mean) (CIA rats [4]; [19]): 3.53*
- Paw thickness (CIA rats [4]; Day 14, AP study, MTX 0.5 mg/kg, AP 200 mg/kg): 3.01 ± 0.03
- Paw thickness (Mean) (CIA rats [4]; [20]): 3.60*
- Paw thickness (Mean) (CIA rats [4]; [21]): 3.98^†
- Paw thickness (CIA rats [4]; Day 16, AP study, MTX 0.5 mg/kg, AP 200 mg/kg): 3.21 ± 0.05
- Paw thickness (Mean) (CIA rats [4]; [22]): 4.32^†
- Paw thickness (Mean) (CIA rats [4]; Day 17, MTX 75 μg/kg, AMK 200 mg/kg): 3.96^¥
- Paw thickness (CIA rats [4]; Day 18, AP study, MTX 0.5 mg/kg, AP 200 mg/kg): 3.25 ± 0.05
- Paw thickness (Mean) (CIA rats [4]; Day 19, MTX 75 μg/kg, AMK 200 mg/kg): 3.06^¥
- Paw thickness (CIA rats [4]; Day 20, AP study, MTX 0.5 mg/kg, AP 200 mg/kg): 3.23 ± 0.06
- Paw thickness (Mean) (CIA rats [4]; Day 21, MTX 75 μg/kg, AMK 200 mg/kg): 3.07^€
- Paw thickness (CIA rats [4]; [23]): 2.93 ± 0.07
- Paw thickness (Mean) (CIA rats [4]; [24]): 3.06
- % Inhibition Paw thickness (AUC) (CIA rats [4]; MTX 75 μg/kg, AMK 200 mg/kg): 71.71%
- % Inhibition Paw thickness (AUC) (CIA rats [4]; MTX 0.5 mg/kg, AP 200 mg/kg): 93.81%
- serum IL-1β inhibition compared to diseased control (IL-1β): 71.5%
- serum MMP-13 inhibition compared to vehicle-treated CIA rats (MMP-13; [9]): 78.6%
- MMP-13 (MMP-13; [5]): 9.67 ± 1.80 pg/mL
- MMP-13 (MMP-13; [10]): 86.57 ± 45.31 pg/mL
